Results from patent US9862676B2, “Hydroxamic acid derivative or salt thereof” (TOYAMA CHEMICAL CO., LTD., priority 2013, dated 2018).
≈ marks a conversion by molar mass, not a printed value.

How the values were obtained:
Assay type in all cases: cell-based
[1] = Test on inhibition of Vero cell growth (XTT); conditions: African green monkey, Vero cells, 3 days culture, read-out: CC50 (concentration inhibiting 50% of cell growth)
Protocol: Each test compound was dissolved in dimethyl sulfoxide, adjusted to each concentration using E'MEM, and then dispensed at 0.1 mL/well to 96-well microplates. The Vero cell suspension was prepared at 3×10^4 cells/mL using E'MEM supplemented with 20% FBS, inoculated thereto at 0.1 mL/well, and cultured at 37° C. for 3 days under 5% CO2. At the completion of the culture, PBS supplemented with 1 mg/mL 2,3-bis-(2-methoxy-4-nitro-5-sulfophenyl)-5-((phenylamino)carbonyl)-2H-tetrazolium inner salt monosodium salt (XTT) and 25 μM phenazine methosulfate (PMS) was prepared and added thereto at 50 μL/well. Approximately 2 hours later, the absorbance at 450 nm was measured using a microplate reader.

[2] = test system: Pseudomonas aeruginosa ATCC27853 strain; experiment: Antibacterial activity, MIC by broth microdilution (CLSI)
Protocol: (§1) The minimum inhibitory concentration (MIC) was measured according to the CLSI (Clinical and Laboratory Standards Institute) standard method using a broth microdilution method given below. The bacteria used were a Pseudomonas aeruginosa ATCC27853 strain, an Escherichia coli ATCC25922 strain and a Klebsiella pneumoniae ATCC13883 strain. Test bacterial cells of each strain cultured overnight in a Mueller-Hinton agar medium were scraped off and suspended at the McFarland 0.5 standard, and this suspension was diluted 10-fold to prepare an inoculum solution. The inoculum solution (0.005 mL) was inoculated to a cation-adjusted Mueller-Hinton medium containing each test compound and cultured at 35° C. for 16 to 20 hours. The minimum drug concentration at which bacterial growth was not visible to the naked eye was defined as MIC.

[3] = test system: Klebsiella pneumoniae ATCC13883 strain; experiment: as above
Protocol: as §1

[4] = test system: Escherichia coli ATCC25922 strain; experiment: as above
Protocol: as §1

| SMILES | CC50 at 3 days [1] | MIC [2] | MIC [3] | MIC [4] |
| --- | --- | --- | --- | --- |
| CNC(=O)[C@@](C)(C(=O)NO)N(C)C(=O)c1ccc(C#Cc2ccc(COCC(O)CO)cc2)cc1 (stereo partly drawn) [Example 2, (2S)-2-((4-((4-((2,3-dihydroxypropoxy)methyl)phenyl)ethynyl)benzoyl)(methyl)amino)-N-hydroxy-N′,2-dimethylmalonamide] | ≥ 100 µg/mL | 1 µg/mL (≈ 2.07 µM) | – | – |
| CNC(=O)[C@@](C)(C(=O)NO)N(C)C(=O)c1ccc(C#Cc2ccc(COCCOC(C)=O)cc2)cc1 [Example 4, 2-((4-((4-((((1S)-2-(hydroxyamino)-1-methyl-1-((methylamino)carbonyl)-2-oxoethyl)(methyl)amino)carbonyl)phenyl)ethynyl)benzyl)oxy)ethyl acetate] | ≥ 100 µg/mL | – | 0.5 µg/mL | 0.25 µg/mL |
| CNC(=O)[C@@](C)(C(=O)NO)N(C)C(=O)c1ccc(C#Cc2ccc(COC(CO)CO)cc2)cc1 [Example 5, (2S)—N-hydroxy-2-((4-((4-((2-hydroxy-1-(hydroxymethyl)ethoxy)methyl)phenyl)ethynyl)benzoyl)(methyl)amino)-N′,2-dimethylmalonamide] | ≥ 100 µg/mL | – | – | – |
| CNC(=O)[C@@](C)(C(=O)NO)N(C)C(=O)c1ccc(C#Cc2ccc(C(CO)CO)cc2)cc1 [Example 6, (2S)—N-hydroxy-2-((4-((4-(2-hydroxy-1-(hydroxymethyl)ethyl)phenyl)ethynyl)benzoyl)(methyl)amino)-N′,2-dimethyl-malonamide] | ≥ 100 µg/mL | – | – | – |
| CNC(=O)[C@@](C)(C(=O)NO)N(C)C(=O)c1ccc(C#Cc2ccc(COCC(C)(C)O)cc2)cc1 [Example 7, (2S)—N-hydroxy-2-((4-((4-((2-hydroxy-2-methylpropoxy)methyl)phenyl)ethynyl)benzoyl)(methyl)amino)-N′,2-dimethyl-malonamide] | ≥ 100 µg/mL | 1 µg/mL (≈ 2.08 µM) | 0.5 µg/mL (≈ 1.04 µM) | 0.25 µg/mL (≈ 0.519 µM) |
| CNC(=O)[C@@](C)(C(=O)NO)N(C)C(=O)c1ccc(C#Cc2ccc(CO[C@@H](C)CO)cc2)cc1 [Example 8, (2S)—N-hydroxy-2-((4-((4-(((1S)-2-hydroxy-1-methylethoxy)methyl)phenyl)ethynyl)benzoyl)(methyl)amino)-N′,2-dimethylmalonamide] | ≥ 100 µg/mL | 1 µg/mL (≈ 2.14 µM) | 1 µg/mL (≈ 2.14 µM) | 0.25 µg/mL (≈ 0.535 µM) |
| CNC(=O)[C@@](C)(C(=O)NO)N(C)C(=O)c1ccc(C#Cc2ccc(C(CO)OC)cc2)cc1 (stereo partly drawn) [Example 9, (2S)—N-hydroxy-2-((4-((4-(2-hydroxy-1-methoxyethyl)phenyl)ethynyl)benzoyl)(methyl)amino)-N′,2-dimethyl-malonamide] | ≥ 100 µg/mL | – | – | 0.5 µg/mL (≈ 1.1 µM) |
| CNC(=O)[C@@](C)(C(=O)NO)N(C)C(=O)c1ccc(C#Cc2ccc(CO[C@H](C)CO)cc2)cc1 [Example 10, (2S)—N-hydroxy-2-((4-((4-(((1R)-2-hydroxy-1-methylethoxy)methyl)phenyl)ethynyl)benzoyl)(methyl)amino)-N′,2-dimethyl-malonamide] | ≥ 100 µg/mL | 1 µg/mL (≈ 2.14 µM) | 0.5 µg/mL (≈ 1.07 µM) | 0.25 µg/mL (≈ 0.535 µM) |
| CNC(=O)[C@@](C)(C(=O)NO)N(C)C(=O)c1ccc(C#Cc2ccc(COC3COC3)cc2)cc1 [Example 11, (2S)—N-hydroxy-N′,2-dimethyl-2-(methyl(4-((4-((oxetan-3-yloxy)methyl)phenyl)ethynyl)benzoyl)amino)malonamide] | – | – | 0.5 µg/mL (≈ 1.07 µM) | 0.0625 µg/mL (≈ 0.134 µM) |
| CNC(=O)[C@@](C)(C(=O)NO)N(C)C(=O)c1ccc(C#Cc2ccc(/C=C/COC)cc2)cc1 [Example 12, (2S)—N-hydroxy-2-((4-((4-((1E)-3-methoxy-1-propen-1-yl)phenyl)ethynyl)benzoyl)(methyl)amino)-N′,2-dimethyl-malonamide] | – | 1 µg/mL (≈ 2.22 µM) | 0.125 µg/mL (≈ 0.278 µM) | 0.0625 µg/mL (≈ 0.139 µM) |
| CNC(=O)[C@@](C)(C(=O)NO)N(C)C(=O)c1ccc(C#Cc2ccc(C(O)COC)cc2)cc1 (stereo partly drawn) [Example 13, (2S)—N-hydroxy-2-((4-((4-(1-hydroxy-2-methoxyethyl)phenyl)ethynyl)benzoyl)(methyl)amino)-N′,2-dimethyl-malonamide] | ≥ 100 µg/mL | 1 µg/mL (≈ 2.21 µM) | 1 µg/mL (≈ 2.21 µM) | 0.25 µg/mL (≈ 0.551 µM) |
| CNC(=O)[C@@](C)(C(=O)NO)N(C)C(=O)c1ccc(C#Cc2ccc(CC(O)CO)cc2)cc1 (stereo partly drawn) [Example 15, (2S)-2-((4-((4-(2,3-dihydroxypropyl)phenyl)ethynyl)benzoyl)(methyl)amino)-N-hydroxy-N′,2-dimethylmalonamide] | – | 1 µg/mL (≈ 2.21 µM) | – | – |
| CNC(=O)[C@@](C)(C(=O)NO)N(C)C(=O)c1ccc(C#Cc2ccc(CC(CO)CO)cc2)cc1 [Example 18, (2S)—N-hydroxy-2-((4-((4-(3-hydroxy-2-(hydroxymethyl)propyl)phenyl)ethynyl)benzoyl)(methyl)amino)-N′,2-dimethyl-malonamide] | – | 1 µg/mL (≈ 2.14 µM) | – | – |
| CNC(=O)[C@@](C)(C(=O)NO)N(C)C(=O)c1ccc(C#Cc2ccc(C(C)OCCO)cc2)cc1 (stereo partly drawn) [Example 21, (2S)—N-hydroxy-2-((4-((4-(1-(2-hydroxyethoxy)ethyl)phenyl)ethynyl)benzoyl)(methyl)amino)-N′,2-dimethyl-malonamide] | – | – | – | 0.5 µg/mL (≈ 1.07 µM) |
| CNC(=O)[C@@](C)(C(=O)NO)N(C)C(=O)c1ccc(C#Cc2ccc(C(O)COCCO)cc2)cc1 (stereo partly drawn) [Example 22, (2S)—N-hydroxy-2-((4-((4-(1-hydroxy-2-(2-hydroxyethoxy)ethyl)phenyl)ethynyl)benzoyl)(methyl)amino)-N′,2-dimethyl-malonamide] | ≥ 100 µg/mL | 1 µg/mL (≈ 2.07 µM) | – | – |
| CNC(=O)[C@@](C)(C(=O)NO)N(C)C(=O)c1ccc(C#Cc2ccc([C@@H](O)CO)c(F)c2)cc1 [Example 26, (2S)-2-((4-((4-(1,2-dihydroxyethyl)-3-fluorophenyl)ethynyl)benzoyl)(methyl)amino)-N-hydroxy-N′,2-dimethyl-malonamide] | – | 1 µg/mL (≈ 2.19 µM) | – | – |
| CNC(=O)[C@@](C)(C(=O)NO)N(C)C(=O)c1ccc(C#Cc2ccc(C(O)COCCO)c(F)c2)cc1 (stereo partly drawn) [Example 27, (2S)-2-((4-((3-fluoro-4-(1-hydroxy-2-(2-hydroxyethoxy)ethyl)phenyl)ethynyl)benzoyl)(methyl)amino)-N-hydroxy-N′,2-dimethylmalonamide] | – | 1 µg/mL (≈ 1.99 µM) | – | – |
| CNC(=O)[C@@](C)(C(=O)NO)N(C)C(=O)c1ccc(C#Cc2ccc([C@H](O)COCCCO)cc2)cc1 [Example 28, (2S)—N-hydroxy-2-((4-((4-((1S)-1-hydroxy-2-(3-hydroxypropoxy)ethyl)phenyl)ethynyl)benzoyl)(methyl)amino)-N′,2-dimethyl-malonamide] | ≥ 100 µg/mL | – | – | 0.5 µg/mL (≈ 1 µM) |
| CCOC[C@@H](O)c1ccc(C#Cc2ccc(C(=O)N(C)[C@@](C)(C(=O)NC)C(=O)NO)cc2)cc1 [Example 29, (2S)-2-((4-((4-((1S)-2-ethoxy-1-hydroxyethyl)phenyl)ethynyl)benzoyl)(methyl)amino)-N-hydroxy-N′,2-dimethyl-malonamide] | ≥ 100 µg/mL | – | 0.5 µg/mL (≈ 1.07 µM) | 0.125 µg/mL (≈ 0.267 µM) |
| CNC(=O)[C@@](C)(C(=O)NO)N(C)C(=O)c1ccc(C#Cc2ccc([C@@H](O)COC)cc2)cc1 [Example 31, (2S)—N-hydroxy-2-((4-((4-((1R)-1-hydroxy-2-methoxyethyl)phenyl)ethynyl)benzoyl)(methyl)amino)-N′,2-dimethyl-malonamide] | ≥ 100 µg/mL | – | 1 µg/mL (≈ 2.21 µM) | 0.5 µg/mL (≈ 1.1 µM) |
| CNC(=O)[C@@](C)(C(=O)NO)N(C)C(=O)c1ccc(C#Cc2ccc([C@@H](O)CCO)cc2)cc1 [Example 32, (2S)-2-((4-((4-((1S)-1,3-dihydroxypropyl)phenyl)ethynyl)benzoyl)(methyl)amino)-N-hydroxy-N′,2-dimethyl-malonamide] | – | 1 µg/mL (≈ 2.21 µM) | – | 0.5 µg/mL (≈ 1.1 µM) |
| CNC(=O)[C@@](C)(C(=O)NO)N(C)C(=O)c1ccc(C#Cc2ccc([C@H](O)[C@@H](C)O)cc2)cc1 [Example 34, (2S)-2-((4-((4-((1S,2R)-1,2-dihydroxypropyl)phenyl)ethynyl)benzoyl)(methyl)amino)-N-hydroxy-N′,2-dimethyl-malonamide] | ≥ 100 µg/mL | 1 µg/mL (≈ 2.21 µM) | – | 0.5 µg/mL (≈ 1.1 µM) |
| CNC(=O)[C@@](C)(C(=O)NO)N(C)C(=O)c1ccc(C#Cc2ccc([C@@H](C)O)cc2)cc1 [Example 37, (2S)—N-hydroxy-2-((4-((4-((1R)-1-hydroxyethyl)phenyl)ethynyl)benzoyl)(methyl)amino)-N′,2-dimethyl-malonamide] | – | 1 µg/mL (≈ 2.36 µM) | 0.5 µg/mL (≈ 1.18 µM) | 0.125 µg/mL (≈ 0.295 µM) |
| CNC(=O)[C@@](C)(C(=O)NO)N(C)C(=O)c1ccc(C#Cc2ccc([C@H](C)O)cc2)cc1 [Example 38, (2S)—N-hydroxy-2-((4-((4-((1S)-1-hydroxyethyl)phenyl)ethynyl)benzoyl)(methyl)amino)-N′,2-dimethyl-malonamide] | – | – | – | 0.25 µg/mL (≈ 0.59 µM) |
